Experimental data taken from patent US7060486B2, “Inhibition of sulfate-reducing-bacteria-mediated degradation using bacteria which secrete antimicrobials” (priority 1998, dated 2006).
Square brackets hold non-standard residues; d marks the D form. Peptide text beside a SMILES is read from it. Orn = NCCC[C@H](N)C(=O)O

Experiments:
[1] = tested on: SRB (D. vulgaris) on 304 stainless steel; assay: Continuous reactor with 304 stainless steel and SRB, electrochemical impedance spectroscopy; settings: 100 μg/mL added to P. fragi K biofilm 24 hours before D. vulgaris
Method: Batch culture corrosion experiments using SAE 1018 mild steel coupons (2.5 cm diameter, 1.2 mm thick) were performed in triplicates in 250 mL Erlenmeyer flasks at 30° C. without shaking as described previously (Jayaraman et al., 1997a). A continuous reactor (Jayaraman et al., 1997c) was also used to develop biofilms on 304 stainless steel and monitor corrosion using electrochemical impedance spectroscopy (EIS) in a minimum of two independent reactors using a Solarton-Schlumberger electrochemical measurement unit (SI 1280, Schlumberger Technical Instruments Division, San Jose, Calif.) interfaced to a Macintosh computer (PowerMac 7100/80, Apple Computers, Cupertino, Calif.) running EISIS electrochemical experimentation software (University of California, Irvine) (similar commercial software, THALES, can also be used). The open circuit potential (OCP) was measured as the potential between the metal specimen and a Ag/AgCl reference electrode, and the polarization resistance (Rp) was determined as the low-frequency value of the impedance (where the imaginary part of the impedance was zero or negligible). Continuous culture corrosion rates were estimated as the inverse of the polarization resistance (Macdonald, D. D. and M. C. H. McCubre, Applications of impedance spectroscopy, p. 262–267. In J. R. Macdonald (ed.), Impedance spectroscopy: Emphasizing solid materials and systems, John Wiley & Sons, New York (1987); Stem, M., Journal of Electrochemical Society, 105(11):638–647 (1958)).
A continuous reactor was used to develop biofilms on metal surfaces as previously described (Jayaraman et al., 1997c). Electrochemical impedance spectroscopy (EIS) was used to obtain impedance data in at least duplicate experiments using a Solarton-Schlumberger electrochemical measurement unit (SI 1280, Schlumberger Technical Instruments Division, San Jose, Calif.) interfaced to a Macintosh computer (PowerMac 7100/80, Apple Computers, Cupertino, Calif.) running EISIS electrochemical experimentation software (University of California, Irvine) (THALES, a similar commercial software, can also be used). The open-circuit potential (OCP) was measured as the potential between the metal specimen and the reference electrode (Ag/AgCl), and the polarization resistance was determined as the dc limit of the impedance using the ANALEIS software developed by Mansfeld et al. (ASTM Special Technical Protocol 1154:186 (1992)). […]

Gram-negative bacteria = settings: cited from earlier work
D. vulgaris (ATCC 29579) = assay: SRB inhibitory assay: viability after one-hour exposure, MPN technique; assay type: cell-based
Method: (§1) D. vulgaris (ATCC 29579) and D. gigas (ATCC 19364) were obtained from the American Type Culture Collection and cultivated in 15 mL screwcap tubes with 10 mL of modified Baar's medium (ATCC medium 1249) supplemented with 100 μL each of the oxygen-scavengers 4% sodium sulfide and Oxyrase (Oxyrase Inc., Mansfeld, Ohio). Initial cultures were grown from −85° C. glycerol stocks; all subsequent cultures were grown with a 3% inoculum from the initial culture maintained at 30° C. without shaking. […] SRB were also cultured periodically in the presence of 0.1% ferrous ammonium sulfate, and the presence of these sulfate-reducers was confirmed by the detection of black iron sulfide in the culture tubes. The desulfoviridin assay was also performed after each MPN assay to confirm the presence of D. vulgaris or D. gigas by its red color under UV light due to the release of the chromophore of the pignment desulfoviridin. (Postgate, 1984).
(§2) For determining the viability indices (Romeo, et al., 1988) of SRB, a late-exponential phase culture (O.D600 0.16 to 0.19 which corresponded to an initial cell number of 5–9×10^4 cells/mL) was exposed to various concentrations of antimicrobials for 1 hour at 30° C. One mL of cells was harvested, washed once in fresh modified Baar's medium to remove cellular debris, and resuspended in 1 mL of fresh modified Baar's medium supplemented with 10 μL each of Oxyrase (Oxyrase Inc., Mansfeld, Ohio) and 4% sodium sulphide. Aliquots of 450 μL were dispensed in 500 μL sterile eppendorf tubes and appropriate amounts of antimicrobials added and incubated at 30° C. The effectiveness of treatment was determined by the multiple-tube most-probable-number (MPN) fermentation technique. (Anonymous. Multiple-tube fermentation technique for members of the coliform group, pp. 9–45 to 9–51. In A. E. Greenberg, L. S. Clesceri, and A. D. Eaton (eds.), Standard Methods for the Examination of Water and Wastewater, 18 ed. American Public Health Association, American Water Works Association, and Water Pollution Control Federation, New York (1992)) (hereafter, Greenberg, 1992).
(§3) The MPN test for enumerating SRB was performed in three 12 mL tubes with a 1000 μL inoculum of SRB, three 12 mL tubes with a 500 μL inoculum, and three 12 mL tubes with a 100 μL inoculum. All nine tubes contained a final volume of 10 mL of modified Baar's medium supplemented with 100 μL each of 4% sodium sulfide and Oxyrase (Oxyrase Inc., Mansfeld, Ohio). The tubes were monitored for 72 hours to determine the number of tubes that were positive for growth. Growth was determined by the increase in culture turbidity, and the MPN index/mL was calculated using the Thomas formula. (Greenberg 1992).

D. gigas (ATCC 19364) = assay: as above; assay type: cell-based
Method: as §1, §2, §3

P. fragi K = assay: Growth of P. fragi K in overnight suspension cultures with antimicrobials; assay type: cell-based; settings: 100 μg/mL, overnight suspension culture
[2] = tested on: SRB (D. vulgaris) on SAE 1018 mild steel; assay: Continuous reactor with SAE 1018 mild steel and SRB, electrochemical impedance spectroscopy
From the text: A continuous reactor was used to develop biofilms on metal surfaces as previously described (Jayaraman et al., 1997c). Electrochemical impedance spectroscopy (EIS) was used to obtain impedance data in at least duplicate experiments using a Solarton-Schlumberger electrochemical measurement unit (SI 1280, Schlumberger Technical Instruments Division, San Jose, Calif.) interfaced to a Macintosh computer (PowerMac 7100/80, Apple Computers, Cupertino, Calif.) running EISIS electrochemical experimentation software (University of California, Irvine) (THALES, a similar commercial software, can also be used). The open-circuit potential (OCP) was measured as the potential between the metal specimen and the reference electrode (Ag/AgCl), and the polarization resistance was determined as the dc limit of the impedance using the ANALEIS software developed by Mansfeld et al. (ASTM Special Technical Protocol 1154:186 (1992)). Continuous culture corrosion rates were estimated from the experimental polarization resistance Rp based on the Stern-Geary equation Rp=B/Icorr, where B is a parameter depending on the Tafel slopes and icorr is the corrosion current density which can be converted into a corrosion rate using Faraday's law (Mansfeld, F., The polarization resistance technique for measuring corrosion currents, In Fontana, M. G., Staehle, R. W. (ed.), Advances in Corrosion Science and Technology, Plenum Press, New York (1976)).
A 3% (vol/vol) SRB inoculum (culture age 24–48 hours) was added to the reactor after 3 to 5 days of aerobic biofilm development. […] All antimicrobials were simultaneously added to the nutrient feed and the reactor at appropriate concentrations.

CC(C)C[C@@H]1NC(=O)[C@H](CCCN)NC(=O)[C@H](C(C)C)NC(=O)[C@@H]2CCCN2C(=O)[C@@H](Cc2ccccc2)NC(=O)[C@H](CC(C)C)NC(=O)[C@H](CCCN)NC(=O)[C@H](C(C)C)NC(=O)[C@@H]2CCCN2C(=O)[C@@H](Cc2ccccc2)NC1=O [gramicidin S] (cyclo(V[Orn]L[dF]PV[Orn]L[dF]P))
effect on D. vulgaris, in words [1]: completely effective in inhibiting the growth of D. vulgaris | concentration that completely inhibits growth (Gram-negative bacteria): 3 to 12.5 µg/mL | reduction of viability (D. vulgaris (ATCC 29579); D. vulgaris, 1 h, 100 μg/mL): 93% | concentration with inhibitory effect (D. vulgaris (ATCC 29579); this study): 50 to 100 µg/mL | reduction of viability (D. gigas (ATCC 19364); D. gigas, 1 h, 25 μg/mL): 92–96% | concentration with inhibitory effect (D. gigas (ATCC 19364); this study): 50 to 100 µg/mL | growth of P. fragi K, in words (P. fragi K): grew to saturation | effect on D. vulgaris, in words ([2]; 100 μg/mL added to P. fragi K biofilm 24 hours before D. vulgaris): the onset of D. vulgaris-induced corrosion of mild steel was delayed | time after D. vulgaris addition without change / increase in Rp ([2]; 100 μg/mL added to P. fragi K biofilm before D. vulgaris): ≥ 80 h
